# Assay results reported in patent publication US11400107B2, “Cancer treatments” (NuCana plc, priority 2016, dated 2022).
# Entries after “also recorded” stand apart in the source; their conditions may differ.
# Test system: advance progressive cancers refractory to, or relapsed on, all conventional therapies
# Assay: ProGem1 dose escalation clinical study of NUC-1031
# Assay type: in vivo, human
# Parameters: CA125 level: unit not given here
# Source text: The following data were generated in clinical studies of NUC-1031 in human patients with advance progressive cancers that are refractory to, or have relapsed on, all conventional therapies that have been used to date. The results clearly illustrate the ability of NUC-1031 to successfully treat refractory cancers.
# Although the primary objectives of the dose escalation part of the study were to determine the Recommended Phase II Dose (RP2D) and safety profile, secondary objectives included determining the PK profile, however effective treatment of patients with a range of refractory cancers has also been observed as part of this study.
# A total of 68 patients have been entered into this dose escalation study, of which 49 were evaluable for clinical response in that they have received at least 2 Cycles of NUC-1031 and were therefore eligible for a RECIST 1.1 assessment.
# NUC-1031 was administered as a 5 to 30 minute intravenous slow bolus injection. • Schedule A: NUC-1031 was administered on days 1, 8, 15 of a 4 weekly Cycle. • Schedule B: NUC-1031 was administered on days 1, 5, 8, 12, 15, 19, of a 4 weekly Cycle. Evaluable Patients [n=49]
# Evaluable patients were patients that received ≥2 Cycles of NUC-1031 and were therefore eligible for a RECIST 1.1 assessment at the end of Cycle 2. Where the disease response duration, measured in months, is followed by a “+” this indicates ongoing disease control as of the latest cut-off date.
# [1] = Patient 040, cholangiocarcinoma, 1,000 then 900 mg/m^2 weekly
# [2] = Patient 041, breast cancer, 900 then 825 mg/m^2 weekly
# [3] = Patient 043, ovarian cancer, 900 then 750 mg/m^2 weekly
# [4] = Patient 044, lung cancer, 900 then 825 mg/m^2 weekly
# [5] = Patient 046, adrenal carcinoma, 1,000, 900, 750, then 625 mg/m^2 weekly
# [6] = Patient 048, ovarian cancer (granulosa cell tumour), 1,000 reduced stepwise to 625 mg/m^2 weekly
# [7] = Patient 052 (204), oesophageal cancer, 900 then 825 mg/m^2 weekly
# [8] = Patient 057 (209), ovarian cancer, 900, 825, then 750 mg/m^2 weekly
# [9] = Patient 058 (210), lung cancer, 825 then 750 mg/m^2 weekly
# [10] = Patient 059 (211), cervical cancer, 825, 750, then 625 mg/m^2 weekly
# [11] = Patient 061 (213), colorectal cancer, 825 mg/m^2 weekly
# [12] = Patient 063 (215), ovarian cancer, 825, 750, then 625 mg/m^2 weekly
# [13] = evaluable patients n = 49, RECIST 1.1
compound,measurement,setting,value
"C[C@H](NP(=O)(OC[C@H]1O[C@@H](n2ccc(N)nc2=O)C(F)(F)[C@@H]1O)Oc1ccccc1)C(=O)OCc1ccccc1 (stereo partly drawn) [NUC-1031, 2′-deoxy-2′,2′-difluoro-D-cytidine-5′-O-[phenyl (benzoxy-L-alaninyl)] phosphate]",Best response to RECIST,[1],Stable Disease
same,Duration of response to RECIST,[1],4 months
same,Tumour volume,"Patient 040, cholangiocarcinoma, end of Cycle 2 CT scan (85 at base)",82.1
same,CA19.9 level,"Patient 040, cholangiocarcinoma, on 4th June (664 at baseline)",155
same,Adverse events (grade),"Patient 041, breast cancer, 900 mg/m^2 weekly, Cycle 3",fatigue (G3)
same,Best response to RECIST,[2],Stable Disease
same,Duration of response to RECIST,[2],4 months
same,CA 15.3 tumour marker,"Patient 041, breast cancer, at C2 (726 at base)",845
same,CA 15.3 tumour marker,"Patient 041, breast cancer, on 19 May 2014 (726 at base)",824
same,Best response to RECIST,"Patient 042, cholangiocarcinoma, 900 mg/m^2 weekly",Progressive Disease
same,Adverse events (grade),"Patient 042, cholangiocarcinoma, 900 mg/m^2 weekly, days 3-5 following study drug",delayed onset fatigue (G2)
same,Reduction in tumour volume of primary target lesion,"Patient 042, cholangiocarcinoma, end of Cycle 2 CT scan",9%
same,Adverse events (grade),[3],delayed onset fatigue (G2); also recorded: Leg oedema developed to G3
same,Best response to RECIST,[3],Stable Disease
same,Duration of response to RECIST,[3],13 months
same,CA125 level,"Patient 043, ovarian cancer, beginning of Cycle 2 (1.099 at baseline as printed)",783
same,Reduction in tumour volume from baseline,"Patient 043, ovarian cancer, end of Cycle 6 CT scan",10%
same,CA125 level,"Patient 043, ovarian cancer, on 15th July (1,099 at baseline)",910
same,Volume of fluid drained from the pleural effusion,"Patient 043, ovarian cancer, on treatment (was 300 ml per week)",150 ml per week
same,Adverse events (grade),"Patient 044, lung cancer, 900 mg/m^2 weekly",G3 lung infection
same,Best response to RECIST,[4],Stable Disease
same,Duration of response to RECIST,[4],5 months
same,Reduction in tumour volume,"Patient 044, lung cancer, end of Cycle 2 CT scan",10%
same,Best response to RECIST,[5],Stable Disease
same,Duration of response to RECIST,[5],11 months
same,Adverse events (grade),"Patient 046, adrenal carcinoma, Cycle 1 at 1,000 mg/m^2, following Cycle 8 D1 at 900 mg/m^2","delayed onset fatigue, nausea and vomiting (all G3); also recorded: neutropenia (G2)"
same,Reduction in tumour volume from baseline,"Patient 046, adrenal carcinoma, end of Cycle 6 CT scan",12.6%
same,Best response to RECIST,[6],Stable Disease
same,Duration of response to RECIST,[6],8 months
same,inhibin B,"Patient 048, ovarian cancer, August (1,038 prior to study entry)",1148
same,inhibin B,"Patient 048, ovarian cancer, July 2014 (1,038 prior to study entry)","1,106"
same,inhibin B,"Patient 048, ovarian cancer, September (1,038 prior to study entry)",1053
same,Adverse events (grade),"Patient 048, ovarian cancer, following Cycle 1 Day 1 at 1,000 mg/m^2, neutropenia (G3) at Cycle 4","ALT, (G3, a DLT); also recorded: AST and neutropaenia (G2); also recorded: ALP (G1); also recorded: neutropenia (G3)"
same,Adverse events (grade),"Patient 050 (202), oesophageal cancer, 900 mg/m^2, following Cycle 1 Day 1","ALT and fatigue, both G3"
same,Best response to RECIST,"Patient 050 (202), oesophageal cancer, 900 mg/m^2 weekly",Progressive Disease
same,Best response to RECIST,"Patient 051 (203), anal cancer, 900 mg/m^2 weekly",Progressive Disease
same,Best response to RECIST,[7],Stable Disease
same,Duration of response to RECIST,[7],5 months
same,Best response to RECIST,"Patient 053 (205), colon cancer, 900 mg/m^2 weekly",Progressive Disease
same,Best response to RECIST,"Patient 055 (207), ovarian cancer, 900, 825, then 625 mg/m^2 weekly",Stable Disease
same,CA125 level,"Patient 055 (207), ovarian cancer, January 2015 (36 at baseline)",24
same,Reduction in tumour volume from baseline,"Patient 055 (207), ovarian cancer, end of Cycle 6 CT scan",18%
same,Duration of response to RECIST,"Patient 055 (207), ovarian cancer, ongoing, 900, 825, then 625 mg/m^2 weekly",≥ 10 months
same,Adverse events (grade),"Patient 057 (209), ovarian cancer, 900 mg/m^2, Cycle 1 Day 15",anaemia and ascites both G3
same,Best response to RECIST,[8],Stable Disease
same,Duration of response to RECIST,[8],5 months
same,Reduction in tumour volume from baseline,"Patient 057 (209), ovarian cancer, end of Cycle 4 CT scan",10%
same,Adverse events (grade),"Patient 058 (210), lung cancer, 825 mg/m^2, Cycle 1","G3 transaminitis (ALT), a DLT"
same,Best response to RECIST,[9],Stable Disease
same,Duration of response to RECIST,[9],4 months
same,Best response to RECIST,[10],Stable Disease
same,Duration of response to RECIST,[10],7 months
same,Adverse events (grade),"Patient 059 (211), cervical cancer, thrombocytopenia in Cycle 1 at 825 mg/m^2, fatigue in Cycle 3 at 750 mg/m^2",thrombocytopenia (G3); also recorded: fatigue (G3)
same,Best response to RECIST,"Patient 060 (212), pancreatic cancer, 825 mg/m^2 weekly",Progressive Disease
same,Adverse events (grade),"Patient 060 (212), pancreatic cancer, 825 mg/m^2 weekly, after Cycle 1","ALP, AST, ALT, all G3"
same,Best response to RECIST,[11],Stable Disease
same,Duration of response to RECIST,[11],3 months
same,Reduction in tumour volume,"Patient 061 (213), colorectal cancer, end of Cycle 2 CT scan",2%
same,Best response to RECIST,[12],Stable Disease
same,Duration of response to RECIST,[12],3 months
same,Adverse events (grade),"Patient 063 (215), ovarian cancer, Cycle 3 at 750 mg/m^2",fatigue (G3)
same,Best response to RECIST,"Patient 064 (216), trophoblastic cancer, 825 mg/m^2 weekly",Progressive Disease
same,Best response to RECIST,"Patient 066 (218), colorectal cancer, 825, 750, then 625 mg/m^2 weekly",Stable Disease
same,Duration of response to RECIST,"Patient 066 (218), colorectal cancer, ongoing, 825, 750, then 625 mg/m^2 weekly",≥ 8 months
same,Reduction in tumour volume from baseline,"Patient 066 (218), colorectal cancer, unscheduled CT scan on 30th December",16%
same,Adverse events (grade),"Patient 067 (219), osteosarcoma, 825 mg/m^2 weekly, towards the end of each Cycle",neutropenia G2
same,Best response to RECIST,"Patient 067 (219), osteosarcoma, 825 then 750 mg/m^2 weekly",Stable Disease
same,Increase (tumour) from baseline,"Patient 067 (219), osteosarcoma, EOS CT scan",1%
same,Duration of response to RECIST,"Patient 067 (219), osteosarcoma, ongoing, 825 then 750 mg/m^2 weekly",≥ 7 months
same,Best response to RECIST,"Patient 068 (220), lung cancer, 825 mg/m^2 weekly",Progressive Disease
same,Best response to RECIST,"Patient 069 (221), colorectal cancer, 825 reduced stepwise to 500 mg/m^2 weekly",Stable Disease
same,Adverse events (grade),"Patient 069 (221), colorectal cancer, Cycle 3 at 825 mg/m^2, after Cycle 4 D1 at 750 mg/m^2, Cycle 5 at 675 mg/m^2","neutropenia (G4); also recorded: neutropenia and leukopenia, G3; also recorded: neutropenia and leukopenia, G2"
same,Response on PET scan,"Patient 069 (221), colorectal cancer, PET scan on 30/10, 825 mg/m^2 weekly",Partial Response
same,Reduction in tumour volume from baseline,"Patient 069 (221), colorectal cancer, end of C2 CT scan",11%
same,Reduction in tumour volume from baseline,"Patient 069 (221), colorectal cancer, end of C4 CT scan",26%
same,Duration of response to RECIST,"Patient 069 (221), colorectal cancer, ongoing, 825 reduced stepwise to 500 mg/m^2 weekly",≥ 7 months
same,Best Overall Response: Partial Responses,[13],5 (10%) patients (%)
same,Best Overall Response: Progressive Disease,[13],11 (22%) patients (%)
same,Best Overall Response: Stable Disease,[13],33 (67%) patients (%)
